In US20110263520A1, “COMPOSITION FOR USE IN CONTROLLING HARMFUL ORGANISMS THAT CONTAINS 16-KETO ASPERGILLIMIDE” (priority 2008, published 2011):
Read-outs that look alike come from different tables or passages of the source.

Tests used:
[1] = test system: Haemaphysalis longicornis; assay: Tickcidal effect against Haemaphysalis longicornis, dry film in glass vial (Test Example 5); format: in vivo; details: for pest or weed control at 1.5 ppm: other agent 1.5 ppm alone (16-keto aspergillimide 0 ppm); for pest or weed control at 3 ppm: other agent 3 ppm alone (16-keto aspergillimide 0 ppm); for pest or weed control at 30 ppm: other agent 30 ppm alone (16-keto aspergillimide 0 ppm); for Death rate (%): Table 10; for Theoretical value (%) by Colby's formula: Table 12
Description: Acetone solutions (30 μl) adjusted to predetermined concentrations were placed in 4 mL-volume glass vials. The vials were placed on a shaker, and a dry film of the compound was prepared on the inner wall of the vials. The vials were dried for 24 hr or more. Larvae (10 or more heads) were released in the vials, and the vials were lidded. The vials were then left to stand in a humidistat chamber (25° C., humidity 85%, fully darkened conditions). […] The test was duplicated.
(§1) Colby's formula: Theoretical value (%)=100−(A×B)/100

[2] = test system: Laodelphax striatellus; assay: Root dipping application test, Laodelphax striatellus (Reference Test Example 1); format: in vivo; details: 0.5 μg/seedling, wheat seedlings, 3 days after release
Description: A test solution adjusted to a predetermined concentration (10% aqueous acetone solution) was applied to the root of wheat seedlings in water culture. […] The test was duplicated.
As is apparent from Table 15, the systemic insecticidal activity of 16-keto aspergillimide was much higher than that of a control compound, Asperparaline A.
The 16-keto aspergillimide and Asperparaline A used in this test were obtained according to methods described in The Journal of Antibiotics, 1997, 50(10), 840-846. This is true of the following test examples.

[3] = test system: Laodelphax striatellus; assay: Foliage application test for Laodelphax striatellus (Test Example 2); format: in vivo; details: other insecticide 0.313 ppm alone (16-keto aspergillimide 0 ppm); for Death rate (%): foliage application, 3 days after release
Description: as §1

[4] = test system: Laodelphax striatellus; assay: Laodelphax striatellus soil drenching application test (Test Example 1); details: for Death rate (%): soil drenching, 3 days after release
Description: Test solutions adjusted to a predetermined concentration (10% aqueous acetone solution) were applied to rice seedling in a pot by soil drenching. The rice seedling was allowed to stand for 3 days. Second instar larvae were released and was then allowed to stand in a humidistat chamber (light period 16 hr−dark period 8 hr) (25° C.).
Death rate (%)={number of dead larvae/(number of survived larvae+number of dead larvae)}×100
wherein A: 100−(death rate when application was performed only with 16-keto aspergillimide); and

[5] = test system: Nilaparvata lugens which is low-sensitive to imidacloprid; assay: Foliage application test for Nilaparvata lugens, imidacloprid low-sensitive strain (Test Example 4); format: in vivo; details: low-sensitive strain, 6 days after release
Description: (§2) Test solutions adjusted to a predetermined concentration (50% aqueous acetone solution) applied to rice seedlings in a pot for foliage application. […] The test was duplicated.
(§3) For comparison, a test was carried out in the same manner as described above, except that a Nilaparvata lugens strain which is highly sensitive to imidacloprid was used.
(§4) Regarding the origin of the test insect pests, Nilaparvata lugens which is low-sensitive to imidacloprid was an insect which had been collected outdoors in Kumamoto Prefecture, 2007, and Nilaparvata lugens which is sensitive to imidacloprid was an insect which had been collected in Kagoshima Prefecture and was then subjected to indoor successive raising.

[6] = test system: Nilaparvata lugens which is sensitive to imidacloprid; assay: Foliage application test for Nilaparvata lugens, imidacloprid-sensitive strain (Test Example 4, comparison); format: in vivo; details: 6 days after release
Description: as §2, §3, §4

[7] = test system: Haemaphysalis longicornis; assay: Tickicidal effect against Haemaphysalis longicornis on body surface of mouse (Test Example 6); format: in vivo; details: other agent 6 μg/2 cm^2 alone (16-keto aspergillimide 0 μg/2 cm^2)
Description: Skin hair on the back of mouse (ICR, male, 5 week olds) was clipped in a diameter of about 2 cm, and a 15-mL polystyrene conical tube cut to have a height of about 1.5 cm was bonded to the body surface of the mouse with an instant adhesive. Test solutions (20 μl) adjusted with ethanol were dropped on the body surface of mice within the bonded tube. After thorough drying, larvae (10 or more heads) were released within the tube, and the tube was lidded. […] The test was hexaplicated.
as §1

[8] = Haemaphysalis longicornis, 48 h, read-out: Death rate (%), Table 9, 2 days after release
[9] = other insecticide 0.002 mg/seedling alone (16-keto aspergillimide 0 mg/seedling)
[10] = treatment concentration 1.25 ppm
[11] = other insecticide 0.005 mg/seedling alone (16-keto aspergillimide 0 mg/seedling)

C/C(=N\C#N)N(C)Cc1ccc(Cl)nc1 [Acetamiprid, acetamiprid]
pest or weed control at 1.5 ppm [1, 8]: 24%
pest or weed control at 3 ppm [1, 8]: 55%

C[C@H]1CCN2C[C@@]34C[C@]5(CC(=O)N(C)C5=O)C(C)(C)[C@@H]3C[C@]12C(=O)N4C [Asperparaline A, reference compound]
Death rate (%) for each amount of test chemical compound [2]: 0%

CN/C(=N\[N+](=O)[O-])NCc1cnc(Cl)s1 [Clothianidin, clothianidin]
Theoretical value (%) calculated by the Colby's formula [3]: 4%
Death rate (%) [3]: 4%
pest or weed control at 5 ppm ([1]; Haemaphysalis longicornis, 48 h, read-out: Death rate (%), Table 10, other agent 5 ppm alone (16-keto aspergillimide 0 ppm), 2 days after release): 35%
pest or weed control at 10 ppm ([1]; Haemaphysalis longicornis, 48 h, read-out: Death rate (%), Table 10, other agent 10 ppm alone (16-keto aspergillimide 0 ppm), 2 days after release): 62%

CN/C(=N/CC1CCOC1)N[N+](=O)[O-] (centres unmarked) [Dinotefuran, dinotefuran]
pest or weed control at 30 ppm [1, 8]: 12%
pest or weed control at 50 ppm ([1]; Haemaphysalis longicornis, 48 h, read-out: Death rate (%), Table 9, other agent 50 ppm alone (16-keto aspergillimide 0 ppm), 2 days after release): 14%
Theoretical value (%) calculated by the Colby's formula [4]: 4%
Death rate (%) [4, 9]: 4%

N#Cc1nn(-c2c(Cl)cc(C(F)(F)F)cc2Cl)c(N)c1[S+]([O-])C(F)(F)F (centres unmarked) [Fipronil, fipronil]
Theoretical value (%) calculated by the Colby's formula [3]: 21%
Death rate (%) [3]: 21%
Theoretical value (%) calculated by the Colby's formula [4]: 5%
Death rate (%) [4, 9]: 5%

O=[N+]([O-])NC1=NCCN1Cc1ccc(Cl)nc1 [Imidacloprid, imidacloprid, reference compound]
Theoretical value (%) calculated by the Colby's formula [3]: 5%
Death rate (%) [3]: 5%
Death rate (%) [5, 10]: 15%
Death rate (%) ([5]; treatment concentration 5 ppm): 55%
Death rate (%) ([5]; treatment concentration 20 ppm): 85%
Death rate (%) [6, 10]: 100%
Death rate (%) ([6]; treatment concentration 5 ppm): 100%
Death rate (%) ([6]; treatment concentration 20 ppm): 100%
pest or weed control at 1.5 ppm [1, 8]: 26%
pest or weed control at 3 ppm [1, 8]: 33%
Theoretical value (%) by Colby's formula [7]: 22%
Death rate (%) ([7]; mouse body surface, 3 days after release): 22%
Theoretical value (%) calculated by the Colby's formula [4, 11]: 5%
Death rate (%) [4, 11]: 5%

CCN(Cc1ccc(Cl)nc1)/C(=C/[N+](=O)[O-])NC [Nitenpyram, nitenpyram]
pest or weed control at 40 ppm ([1]; Haemaphysalis longicornis, 48 h, read-out: Death rate (%), Table 9, other agent 40 ppm alone (16-keto aspergillimide 0 ppm), 2 days after release): 12%

CC(c1ccc(C(F)(F)F)nc1)S(C)(=O)=NC#N (centres unmarked) [Sulfoxaflor, sulfoxaflor]
pest or weed control at 75 ppm ([1]; Haemaphysalis longicornis, 48 h, read-out: Death rate (%), Table 10, other agent 75 ppm alone (16-keto aspergillimide 0 ppm), 2 days after release): 48%
pest or weed control at 150 ppm ([1]; Haemaphysalis longicornis, 48 h, read-out: Death rate (%), Table 10, other agent 150 ppm alone (16-keto aspergillimide 0 ppm), 2 days after release): 60%

CN1COCN(Cc2cnc(Cl)s2)/C1=N\[N+](=O)[O-] [Thiamethoxam, thiamethoxam]
pest or weed control at 30 ppm ([1]; Haemaphysalis longicornis, 48 h, read-out: Death rate (%), Table 10, 2 days after release): 21%
pest or weed control at 60 ppm ([1]; Haemaphysalis longicornis, 48 h, read-out: Death rate (%), Table 10, other agent 60 ppm alone (16-keto aspergillimide 0 ppm), 2 days after release): 26%

ivermectin
Death rate (%) ([1]; other agent 200 ppm alone (16-keto aspergillimide 0 ppm), 2 days after release): 0%
Death rate (%) ([1]; other agent 400 ppm alone (16-keto aspergillimide 0 ppm), 2 days after release): 0%
Theoretical value (%) by Colby's formula ([1]; other agent 200 ppm alone (16-keto aspergillimide 0 ppm)): 0%
Theoretical value (%) by Colby's formula ([1]; other agent 400 ppm alone (16-keto aspergillimide 0 ppm)): 0%
